Measurements as given in PMC8222254, “Self-assembly of an anion receptor with metal-dependent kinase inhibition and potent in vitro anti-cancer properties” (Nature Communications, 2021).
“And” between values parts separate entries of the source, which are not always exact repeats. Equal values may be shown once. Read-outs that look alike come from different tables or passages of the source.

Legend:
Assay in all cases: Chemosensitivity, 96 h continuous exposure, MTT assay
Type in all cases: cell-based, human
[1] = test system: MiaPaCa2; details: for IC50: MiaPaCa2, 96 h, MTT; for SI (ARPE19): mean IC50 ARPE-19 / mean IC50 MiaPaCa2
Excerpt: (§1) All cell lines were purchased from and maintained as monolayers as described by the American Type Culture Collection with the exception of the p53^+/+ and p53^−/− isogenic clones of HCT116 human colorectal adenocarcinoma cells which were a kind gift from Professor Bert Vogelstein[54]. GBM1 cells were established from a primary GBM tumour by Heiko Wurdak and colleagues[32],[33]. Non-cancerous adult brain neural progenitor (NP1) cells were derived from a patient undergoing surgery to treat epilepsy[32],[33]. Cell culture and growth media for NP1 and GBM1 cells were as described[32],[33]. The response of cells following a continuous 96-h exposure to test compounds and platinates was determined using the MTT assay. Potency was recorded as the IC50 and the selectivity index (SI) was defined as the ratio of IC50 values for non-cancer to cancer cell lines with values >1 representing selectivity for cancer cells as opposed to non-cancer cells.
(§2) All cell lines used were maintained at low passage in antibiotic-free media. HT29, DLD-1, HCT116 p53^+/+ and HCT116 p53^−/− are all colorectal adenocarcinoma cell lines derived from different individuals and harbour different combinations of oncogenic lesions (except for the HCT116 isogenic cancer cell clones that are genetically identical except for p53 status). PSN-1, BxPC-3 and MiaPaCa2 are pancreatic carcinoma cell lines and A549 and H460 are lung carcinoma cell lines. HT29, DLD-1, PSN-1, BxPC-3, A549 and H460 cell lines were cultured in RPMI-1640 growth media (Sigma) containing 2 mM L-glutamine, 1 mM sodium pyruvate and 10% foetal bovine serum (FBS). HCT116 (p53^+/+ and p53^−/−) and MiaPaCa2 cell lines were cultured in Dulbecco’s Modified Eagle’s Medium (Sigma), 2 mM L-glutamine and 10% FBS. The ARPE-19 retinal epithelial non-cancer cell line was cultured in DMEM/F12 media (Gibco), 2 mM L-glutamine, 1 mM sodium pyruvate and 10% FBS. The MCF10A non-cancerous human breast epithelial cell line was cultured in Minimal Essential Media Eagle (Sigma), 2 mM L-glutamine, 1 mM sodium pyruvate, 10% FBS and 1x non-essential amino acids (NEAA). NP1 and GBM1 cells were cultured on plasticware coated with poly-L-ornithine (5 µg/ml) and laminin (2.4 µg/ml)[32],[33]. NP1 cells were grown in DMEM/F12 media (Gibco) supplemented with 5% FBS, 20 ng/ml hFGF, 20 ng/ml rhEGF, 0.5x B-27 supplement (Gibco), 0.5x N-2 supplement (Gibco) and 1x GLUTAMAX (Gibco). GBM1 cells were cultured in Neurobasal media (Gibco) supplemented with 40 ng/ml hFGF, 40 ng/ml rhEGF, 0.5x B-27 supplement (Gibco) and 0.5x N-2 supplement (Gibco).
(§3) [L2(Metal)3]^6+ and all the other self-assembling complexes were freshly formed by adding DMSO to individual components and mixing together by pipetting. These were then further diluted in cell culture media such that the final DMSO concentration that cells were exposed to was 0.2% (vehicle control). Cisplatin, oxaliplatin and carboplatin were dissolved in phosphate buffered saline. Cell lines were seeded into 96 well plates at 2 × 10^3 cells per well and incubated overnight at 37 °C. GBM1 cancer stem-like cells were seeded at 3 × 10^3 cells per well and NP1 neural progenitors were seeded at 1.5 × 10^3 cells per well. The following day, media was removed and replaced with fresh media containing test compounds at a range of concentrations. Cells were incubated with test compounds for a further 96 h after which the media was removed and replaced with fresh media (200 μl/well). MTT was added (20 μl at 5 mg/ml) and cells were incubated for a further 4 h. Media and MTT were removed and formazan crystals were dissolved in 150 μl of DMSO and the absorbance of the resulting solution determined at 540 nm. Dose response curves were constructed, and the concentration required to reduce cell growth by 50% (IC50) determined.

[2] = test system: HCT116 p53+/+; details: for SI (ARPE19): mean IC50 ARPE-19 / mean IC50 HCT116 p53+/+; for Selectivity index (ARPE19): IC50 ARPE-19 / IC50 HCT116 p53+/+
Excerpt: as §1, §2, §3

[3] = test system: HCT116 p53-/-; details: for SI (ARPE19): mean IC50 ARPE-19 / mean IC50 HCT116 p53-/-; for Selectivity index (ARPE19): IC50 ARPE-19 / IC50 HCT116 p53-/-
Excerpt: as §1, §2, §3

[4] = test system: ARPE-19 non-cancer cells
Excerpt: as §1, §2, §3

[5] = individual run, read-out: IC50 values for each replicate
[6] = mean of at least 3 independent experiments, read-out: Mean IC50
[7] = HCT116 p53+/+, 96 h, MTT, individual run, read-out: IC50 values for each replicate
[8] = HCT116 p53+/+, 96 h, MTT, mean of at least 3 independent experiments, read-out: Mean IC50
[9] = HCT116 p53-/-, 96 h, MTT, individual run, read-out: IC50 values for each replicate
[10] = HCT116 p53-/-, 96 h, MTT, mean of at least 3 independent experiments, read-out: Mean IC50
[11] = ARPE-19, 96 h, MTT, individual run, read-out: IC50 values for each replicate
[12] = ARPE-19, 96 h, MTT, mean of at least 3 independent experiments, read-out: Mean IC50
[13] = HCT116 p53+/+, individual replicate experiments, read-out: IC50 values
[14] = HCT116 p53-/-, individual replicate experiments, read-out: IC50 values
[15] = ARPE19, individual replicate experiments, read-out: IC50 values
[16] = HCT116 p53+/+, read-out: Mean IC50 values
[17] = HCT116 p53-/-, read-out: Mean IC50 values
[18] = ARPE-19 non-cancer, read-out: Mean IC50 values

Row | Structure (SMILES) | IC50 [1, 5] | IC50 [1, 6] | SI (ARPE19) [1] | IC50 [2, 7] | IC50 [2, 8] | SI (ARPE19) [2] | IC50 [3, 9] | IC50 [3, 10] | SI (ARPE19) [3] | IC50 [4, 11] | IC50 [4, 12] | IC50 [2, 13] | Selectivity index (ARPE19) [2] | IC50 [3, 14] | Selectivity index (ARPE19) [3] | IC50 [4, 15] | IC50 [2, 16] | IC50 [3, 17] | IC50 [4, 18] | also measured
1 | N.N.O=C([O-])C1(C(=O)[O-])CCC1.[Pt+2] [Carboplatin, carboplatin, reference compound] | 30.3 µM and 44.7 µM and 31.8 µM | 35.6 µM | 2.184 | 43.3 µM and 21 µM and 32.9 µM | 32.4 µM | 2.401 | 45.8 µM and 28.2 µM and 33.1 µM | 35.7 µM | 2.177 | 87.6 µM and 79 µM and 66.6 µM | 77.7 µM | – | – | – | – | – | – | – | – | –
2 | N.N.[Cl][Pt][Cl] [Cisplatin, cisplatin, reference compound] | 3.69 µM and 2.84 µM and 4.32 µM | 3.62 µM | 1.771 | 2.84 µM and 3.35 µM and 3.58 µM | 3.26 µM | 1.966 | 7.14 µM and 7.16 µM and 8.27 µM | 7.52 µM | 0.852 | 6.07 µM and 7.48 µM and 5.69 µM | 6.41 µM | – | – | – | – | – | – | – | – | –
3 | c1ccc(-c2csc(NCCN(CCNc3nc(-c4ccccc4)cs3)CCNc3nc(-c4ccccc4)cs3)n2)cc1 [L] | – | – | – | – | – | – | – | – | – | – | – | 0.173 µM and 0.524 µM and 0.141 µM | 19.369 and 19.36 | 0.074 µM and 0.081 µM | 77.506 | 4.96 µM and 6.38 µM | – | – | – | IC50 ([2]; Homo sapiens, HCT-116, HCT116 p53+/+, read-out: Mean IC50 values): 0.279 µM; IC50 ([3]; Homo sapiens, HCT-116, HCT116 p53-/-, individual replicate experiments, read-out: IC50 values): 0.054 µM; IC50 ([3]; Homo sapiens, HCT-116, HCT116 p53-/-, read-out: Mean IC50 values): 0.07 µM; IC50 ([4]; Homo sapiens, ARPE-19, ARPE19, individual replicate experiments, read-out: IC50 values): 4.89 µM; IC50 ([4]; Homo sapiens, ARPE-19, ARPE-19 non-cancer, read-out: Mean IC50 values): 5.41 µM
4 | O=C1[O][Pt]2([NH][C@@H]3CCCC[C@H]3[NH]2)[O]C1=O [Oxaliplatin, oxaliplatin, reference compound] | 5.23 µM and 7.06 µM and 7.02 µM | 6.44 µM | 0.484 | 1.05 µM and 0.89 µM and 0.84 µM | 0.93 µM | 3.355 | 5.46 µM and 2.46 µM and 3.06 µM | 3.67 µM | 0.850 | 2.83 µM and 3.1 µM and 3.39 µM | 3.12 µM | – | – | – | – | – | – | – | – | –
5 | [Cu+2].c1ccc(-c2csc(NCCN(CCNc3nc(-c4ccccn4)cs3)CCNc3nc(-c4ccccn4)cs3)n2)nc1 [[LCu]2+] | – | – | – | – | – | – | – | – | – | – | – | 0.512 µM and 0.583 µM and 0.251 µM | 13.19 | 0.049 µM and 0.045 µM and 0.083 µM | 100.09 | 5.93 µM and 5.5 µM and 6.33 µM | 0.449 µM | 0.059 µM | 5.92 µM | –
6 | [Zn+2].c1ccc(-c2csc(NCCN(CCNc3nc(-c4ccccn4)cs3)CCNc3nc(-c4ccccn4)cs3)n2)nc1 [[LZn]2+] | – | – | – | – | – | – | – | – | – | – | – | 0.483 µM and 0.549 µM and 0.244 µM | 11.94 | 0.054 µM and 0.063 µM and 0.087 µM | 74.47 | 5.39 µM and 4.76 µM and 5.09 µM | 0.425 µM | 0.068 µM | 5.08 µM | –
